Molecules are shown by their SMILES.

What all share (type): cell-based
The subject of assay [1] is CFPAC-1. The assay is described as follows: Cell line panel 2 high-content screen. Conditions: Homo sapiens; CFPAC-1 (pancreas); 72 hours. The method, then:
(§1) To support clinical development and identify potential biomarkers of tumor sensitivity or resistance, two large cancer cell line panels (Panel 1, N=653 (McDermott et al. (2007) PNAS 104:19936-19941); Panel 2, N=240 (O'Day et al. (2010) Fourth AACR International Conference on Molecular Diagnostics in Cancer Therapeutic Development)) were treated with MLN4924 and cell viability data (IC50, EC50, and POC—Percentage of Control) were generated.
(§2) Panel 2 (Ricerca Biosciences, Inc., Bothell, Wash.). MLN4924 was added in half-log dilutions for 10 concentrations and treated for 72 hours. High-content cell screening by fluorescence microscopy included image analysis to generate several types of data. Results included EC50 values (after measurement of cell numbers, the EC50 concentration was calculated from the inflection point of a curve of percent of control (POC) against log of MLN4924 concentration), IC50 values (from the POC-log MLN4924 plot, IC50 is the concentration at 50% maximal possible response), apoptosis (measurement of activation of caspase 3 plotted against log of MLN4924 concentration, determined as the concentration for >5 fold induction), and mitotic activity (determined by measuring the fold increase of phospho-histone 3). A comparison of EC50 to IC50 (FIG. 3) allowed assignment of cell lines to sensitive, insensitive or resistant. Final identification of a cell line as sensitive or resistant was based on the EC50 values. The cutoff for sensitivity is a median EC50 of less than the median value of all POC's recorded in the panel (<0.36), borderline sensitivity was associated with median EC50 of 0.36 to 1.67 and insensitive or resistant cell lines were identified by EC50 greater than the 3rd quartile of all POC's in the panel (>1.67).

Assay [2] relates to SK-OV-3. The assay is described as follows: Cell line panel 2 high-content screen. Conditions: Homo sapiens; SK-OV-3 (ovary); 72 hours. How it is done: as §1, §2
Assay [3] relates to THP-1. The assay is described as follows: Cell line panel 2 high-content screen. Conditions: THP-1 (haematopoietic, lymphoid_tissue). How it is done: as §1, §2
Assay [4] concerns HCT-116 TP53 +/+ cells. The assay is described as follows: ATPlite viability assay, isogenic HCT-116 pair. Conditions: Homo sapiens, HCT-116 TP53 +/+ (wild-type), 72 h, read-out: LC50 (the source's name). The method, then: (§3) Paired isogenic HCT-116 cell lines that were either wild-type (+/+) or null (−/−) for p53 expression (HD PAR-018 and HD 104-001, respectively, Horizon Discovery Ltd) were seeded in separate 384-well plates and then treated the following day with a titration of MLN4924 triplicate, and incubated for 24, 36, 48 or 72 h, with seeding densities of 1600, 1200, 800, and 400 cells/well, respectively. Following compound incubation, viability of HCT-116 cells was assessed by ATPlite assay (Perkin Elmer) according to the manufacturer's instructions using the LEADseeker imaging system (GE Healthcare).
(In general: In ATP-based viability assays light output follows the ATP content of the culture.)

The test system of assay [5] is HCT-116 TP53 −/− cells. The assay can be described thus: ATPlite viability assay, isogenic HCT-116 pair. The method, then: as §3

In the case of `NS(=O)(=O)OC[C@@H]1C[C@@H](n2ccc3c(N[C@H]4CCc5ccccc54)ncnc32)C[C@@H]1O` [MLN4924, ((1S,2S,4R)-4-{4-[(1S)-2,3-dihydro-1H-inden-1-ylamino]-7H-pyrrolo[2,3-d]pyrimidin-7-yl}-2-hydroxycyclopentyl)methyl sulphamate], the EC50 in assay [1] was 6370 nM; in assay [2] it was 10000 nM; in assay [3] (Homo sapiens, 72 hours) it was 148 nM. The Phenotype result in assay [3] (KDM6A mutant) is listed as “sensitive (The cutoff for sensitivity is a median EC50 of less than the median value of all POC's recorded in the panel (<0.36))”. In addition, the CC50 in assay [4] stood at 21 ± 1 nM; in assay [5] (Homo sapiens, HCT-116 TP53 −/− (null), 72 h, ATPlite, read-out: LC50 (the source's name)), 74 ± 5 nM. In assay [5] (TP53 −/− versus TP53 +/+ HCT-116, 24, 36, and 48 h), the “cell death at the highest drug concentrations” value is “less cell death”.

For orientation: EC50 means the concentration that produces a half-maximal response. A high value points to a less potent agent.

For the origin of these results see patent US20150119410A1, “BIOMARKERS OF RESPONSE TO NAE INHIBITORS” (MILLENNIUM PHARMACEUTICALS, INC., priority 2011, published 2015).
